Consider two molecules from ChEMBL document CHEMBL1136630, “Cancer chemotherapy: a SN-38 (7-ethyl-10-hydroxycamptothecin) glucuronide prodrug for treatment by a PMT (Prodrug MonoTherapy) strategy” (Bioorg Med Chem Lett, 2003).

In data set [1] the test system is HT-29. As to the kind of experiment: In vitro inhibitory concentration required against HT-29 human colon cancer cells. It counts as functional, cell-based.
Data set [2] in a line: Half-life time was determined. The class given is ADME.
Data set [3] concerns HT-29. As to the kind of experiment: In vitro inhibitory concentration required against HT-29 human colon cancer cells in the presence of beta-D-glucuronidase. The class given is functional, cell-based.

The IC50 is the point on the concentration scale where inhibition reaches its midpoint. In the data set with HT-29 [1], `CCc1c2c(nc3ccc(O)cc13)-c1cc3c(c(=O)n1C2)COC(=O)[C@]3(O)CC` [7-ETHYL-10-HYDROXYCAMPTOTHECIN] yielded a half-maximal inhibitory concentration (IC50) of 27.3 nM.
What is called half-life is the time needed for the level to fall by half in the phase considered. A low value points to fast loss. For `CCc1c2c(nc3ccc(OC(=O)N(C)c4cc([N+](=O)[O-])ccc4OC4CC(C(=O)O)C(O)C(O)C4O)cc13)C1CC3=C(COC(=O)[C@]3(O)CC)C(=O)N1C2` (some centres undefined), in data set [2], the half-life turned out to be 12.7 min. In addition, the concentration for half-maximal inhibition (IC50) in the data set on HT-29 [3] is 26 nM; in the data set on HT-29 [1], 1980 nM.
